From US5025036A, “Catechol carboxylic acids” (Hoffmann-La Roche Inc., priority 1989, dated 1991)

Key:
[1] = tested on: cardiac lipid peroxidation; experiment: In vitro testing of antiperoxidative agents (cardiac lipid peroxidation); assay type: biochemical; conditions: rat cardiac liposomes, 60 minutes, 37° C., pH 7.4; read-out: Inhib. of Lipid Peroxidation IC50
Procedure: The test system employs hypoxanthine-xanthine oxidase (XO)-Fe^3+. ADP as the free radical generator and purified, native rat-heart membrane phosphoglyceride in Hepes-KCl buffer, pH 7.4, as the substrate. Inhibition of superoxide-dependent, iron-promoted lipid peroxidation in the linear reaction phase (after 1 hour of reaction) is measured as the net formation of thiobarbituric acid (TBA)-reactive material. In this system, the TBA-reactive material, isolated by HPLC, is exclusively (>95%) malondialdehyde (MDA), a fragmentation end-product arising from fatty acyl hydroperoxides and cyclic endoperoxides.
Conscious male Sprague-Dawley rats (~275 g) maintained on a normal rodent diet were decapitated. The hearts were rapidly removed and perfused via the aorta with ice-cold 10 mM Hepes buffer, pH 7.4. The aorta and atria were removed, and the ventricular tissue was blotted and weighed (wet weight). The hearts were minced on ice with scissors and finally homogenized (100 mg tissue/ml ice-cold buffer) for 15 seconds (3×5 seconds) with a Tekmar Tissumizer at "maximal" setting. The homogenate was filtered through 4-ply cheesecloth, and homogenate lipids were extracted and purified by a modified Bligh-Dyer procedure (M. D. Marshall and M. Kates, Biochem. Biophys. Acta 260, 558 (1972). The cardiac lipids were stored in CHCl3 under nitrogen at -20° C.
Liposomes were prepared from extracted and purified, native rat heart cardiac lipid and were used as substrate for free-radical attack. Cardiac lipid (in CHCl3) was placed in a glass flask and evaporated to dryness under nitrogen at room temperature; the flask was gently rotated during evaporation to yield a thin, dry lipid film. The lipid was taken up in 10 mM Hepes-0.145M CKl, pH 7.4, and was resuspended by indirect anaerobic sonication for 15 minutes at room temperature. The liposome suspension was used immediately.
A chelate was formed in Hepes-KCl buffer between Fe^3+ (1.0 mM FeCl3, final concentration) and ADP (10 mM, final concentration) at pH 7.4 with stirring at room temperature. Chelation was allowed to proceed for 90 minutes prior to use. The chelate was prepared fresh for each days experiments to ensure iron solubility, effective chelation, and valence state.
Malondialdehyde (MDA) equivalents were measured as thiobarbituric acid (TBA)-reactive material by the following modification of published methods. The reaction mixture, prepared fresh daily, contained water:BHT ([…] BHT in absolute ethanol):TBA (1.5% TBA in 0.2M Tris, pH 7.0) in the volume ratio 1:1:5. To each 1.0 ml of peroxidation reaction assayed (see below), 0.35 ml reaction mixture was added. After thorough mixing, the tubes were incubated in an 80° C. shaking water bath for 30 minutes. After this time, the tubes were plunged into an ice water bath, and the reaction was immediately stopped with 0.5 ml ice-cold 91% TCA followed by 2.0 ml CHCl3. After centrifugation for 30 minutes at 2000 rpm in a Sorval HL-8 rotor (4° C.), the absorbance of the washed, pink upper phase was read at 532 nm. A standard curve (0.8-40.0 nmol MDA) was run with every assay. For each curve, MDA was freshly prepared by acidification of 1,1,3,3-tetraethoxypropane with 75% TCA-2.3N HCl (0.15 ml acid mixture with 1.0 ml suitably diluted tetraethoxypropane). Computer-assisted regression analysis of the standard curve was used to quantify the molar amounts of MDA equivalents in the experimental samples.
Cardiac liposomes were subjected to superoxide-dependent, iron-promoted peroxidation in glass vessels to avoid the well-known antioxidant effects of many common polymerizing agents used to fabricate plastic labware. Screening was performed in triplicate in glass 12×75 mm tubes at a final reaction volume of 1.0 ml and a reaction time of 60 minutes. […]

[2] = Antibiotic-Induced Colitis in Hamsters, In Vivo; design: species or system male Syrian hamsters (LUG); conditions: >1.0 = therapy prolongs survival, ** p < 0.01
Procedure: Male Syrian hamsters (LUG), weighing 80 to 120 g were each given a single dose of 175 mg/kg of clindamycin-phosphate or of clindamycin-hydrochlorideintraperitoneally, to induce colitis. Approximately seven hours after injection, the animals were given the test compound orally or intraperitoneally and the therapy was continued twice a day for a period of four more days. For oral administration, the […] was suspended in water or dissolved in dimethylsulfoxide and delivered to the animals by gavage using an oral intubating needle. The effect of the therapy was measured by use of the Hazard Ratio, which is the ratio of the mortality of the animals treated with the test inhibitor compound contained in a vehicle to the mortality of the animals treated with the vehicle containing none of the test inhibitor compound. The mortality was determined for the test inhibitor compound-treated groups and for the vehicle-treated groups, respectively, twice daily, and was evaluated by comparing the survival curves of each group. The Kaplan-Meier estimate of the survival curve was calculated for each group and the Mantel-Cox (logrank) test was used to compare the survival curve of each test inhibitor compound-treated (therapy) group to that of the corresponding vehicle control group. […] (See, J. G. Bartlett et al. Amer. J. Vet. Res. 39: 1525-1530 (1978)).

Row | IC50 [1] [nM] | Structure (SMILES) | Hamster Colitis Model Hazard Ratio ([2]; 10 mg/kg p.o) | Hamster Colitis Model Hazard Ratio ([2]; 100 mg/kg p.o)
1 | 600 | CCCc1c(OCCCCCCc2ccc(O)c(O)c2)ccc(C(=O)O)c1O [4-[6-(3,4-dihydroxyphenyl)hexyloxy]-2-hydroxy-3-propylbenzoic acid] | – | –
2 | 700 | CCCc1c(OCCCCCCc2ccc(C(C)C)c(O)c2O)ccc(C(=O)O)c1O [4-[6-[2,3-dihydroxy-4-(1-methylethyl)phenyl]hexyloxy]-2-hydroxy-3-propylbenzoic acid] | – | –
3 | 300 | CCCc1c(OCCCCCCCCc2cccc(O)c2O)ccc(C(=O)O)c1O [4-[8-(2,3-dihydroxyphenyl)octyloxy]-2-hydroxy-3-propylbenzoic acid] | – | –
4 | 400 | CCCc1c(OCCCCCCCCCCc2cccc(O)c2O)ccc(C(=O)O)c1O [4-[10-(2,3-dihydroxyphenyl)decyloxy]-2-hydroxy-3-propylbenzoic acid] | – | –

More lines, now with the values behind:

Row | Structure (SMILES) | IC50 [1] [nM] | Hamster Colitis Model Hazard Ratio ([2]; 10 mg/kg p.o) | Hamster Colitis Model Hazard Ratio ([2]; 100 mg/kg p.o)
5 | CCCc1c(OCCCCc2cccc(O)c2O)ccc(C(C)=O)c1O [1-[2-Hydroxy-4-[4-(2,3-dihydroxyphenyl)butoxy]-3-propylphenyl]ethanone] | > 1000 | – | –
6 | CCCc1c(OCCCCCCc2ccc(C(C)C)c(O)c2O)ccc(C(C)=O)c1O [1-[2-hydroxy-4 [6-[2,3 dihydroxy-4-(1-methylethyl)phenyl]hexyloxy]-3 propylphenyl]ethanone] | 700 | – | –
7 | CCCc1c(OCCCCCCc2cccc(O)c2O)ccc(C(C)=O)c1O [1-[2-hydroxy-4-[6-(2,3-dihydroxyphenyl)hexyloxy]-3-propylphenyl]ethanone] | 700 | – | –
8 | CCCc1c(OCCCCc2cccc(O)c2O)ccc(C(=O)O)c1O [4-[4-(2,3-dihydroxyphenyl)butoxy]-2-hydroxy-3-propylbenzoic acid] | 500 | 1.35 | 0.1
9 | CCCc1c(OCCCCCCc2cccc(O)c2O)ccc(C(=O)O)c1O [4-[6-(2,3-Dihydroxyphenyl)hexyloxy]-2-hydroxy-3-propylbenzoic acid] | 300 | 2.26 | 4.22
10 | O=C(O)c1ccc(OCCCCCCc2cccc(O)c2O)cc1O [4-[6-(2,3-Dihydroxyphenyl)hexyloxy]-2-hydroxybenzoic acid] | > 1000 | – | –
11 | O=C(O)c1ccc(OCCCCCCc2cccc(O)c2O)cc1 [4-[6-(2,3-Dihydroxyphenyl)hexyloxy]benzoic acid] | > 1000 | – | –
